Legend:
[1] = Solubility in polyethylene sheets (visual examination for undissolved constituents); format: physicochemical; details: 1 mm sheets; for Solubility 0.1%: 0.1 part in 100 parts polyethylene (density 0.917); for Solubility 0.3%: 0.3 part in 100 parts polyethylene (density 0.917)
Description: (§1) 100 Parts of polyethylene having a density of 0.917 are homogeneously mixed in a Brabender plastograph with 0.1 and 0.3 parts, respectively, of a light-stabilising agent of formula I at 180°C for 10 minutes. The resulting mixture is moulded in a platen press at 170°C to give 1 mm thick sheets, and these are then examined visually for undissolved constituents. The sheets are suspended at room temperature and periodically examined for efflorescence phenomena.

[2] = Compatibility with polyethylene sheets (efflorescence at room temperature); format: physicochemical; details: 1 mm sheets; for Compatibility 0.1% (number of days over which no efflorescence phenomena are detectable): 0.1 part in 100 parts polyethylene; for Compatibility 0.3% (number of days over which no efflorescence phenomena are detectable): 0.3 part in 100 parts polyethylene
Description: as §1
*Compatibility: number of days over which no efflorescence phenomena are […]

[3] = Light stabilization of polypropylene film, carbonyl (CO) extinction on exposure in Xenotest 150; details: 0.25 part per 100 parts polypropylene, 0.1 mm film, with 0.2 part antioxidant, no light stabilizer: 0.300 at 1,000 hours
Description: 100 parts of polypropylene powder (Moplen, fibre grade, from Messrs. Montedison) are homogenised with 0.2 part of β-(3,5-di-tert-butyl-4-hydroxyphenyl)-propionic acid octadecyl ester as the antioxidant and 0.25 part of a light stabilizer from Table 2 below, for 10 minutes in a Brabender plastograph at 200°C. The mass thus obtained is taken from the kneader as rapidly as possible and is pressed in a toggle press to give 2 - 3 mm thick sheets. A part of the pressed blank obtained is cut out and pressed between two high gloss hard aluminium foils for 6 minutes at 260°C and 12 tons pressure, using a manual hydraulic laboratory press, to give an 0.5 mm thick film which is immediately chilled in cold water. The 0.1 mm thick test film is produced from this 0.5 mm film under exactly the same conditions. Pieces of 60 × 44 mm are now punched from the 0.1 mm thick film and exposed in the Xenotest 150. At regular intervals of time, these test specimens are taken from the light exposure apparatus and examined for their carbonyl content in an IR-spectrophotometer. The increase in the carbonyl extinction during exposure to light is a measure of the photo-oxidative degradation of the polymer [see L. Balaban et al., J. Polymer Sci. Part C, 22, 1059-1071 (1969); J. F. Heacock, J. Polymer Sci. Part A-1, 22, 2921-34 (1969); D. J. Carlsson and DM. Wiles, Macromolecules 2,587-606 (1969)] and is, according to experience, associated with a deterioration of the mechanical properties of the polymer. Thus, for example, the film stabilised with antioxidant only is completely brittle when it reaches a carbonyl extinction of approx. 0.300. The protective action of the light stabilizers according to the invention can be seen from the following Table 3: […]

[4] = Light stabilization of polystyrene sheets, yellowing factor after exposure in Xenotest 150; details: exposed 2,000 hours in Xenotest 150; 0.25 part per 100 parts polystyrene, 2 mm sheets; no light stabilizer: 20.0
Description: 100 parts of polystyrene granules are mixed dry with 0.25 part of a light stabilizer from Table 4 below and the mixture is regranulated in an extruder and subsequently moulded on an injection moulding machine to give 2 mm thick sheets. The sheets obtained are exposed for 2,000 hours in the Xenotest 150 apparatus and their yellowing is determined as follows, from the yellowing factor: [formula] wherein Δ T denotes the loss in transmission at wavelengths 420 and 680 nm respectively, which has occurred during exposure, and T(560) denotes the transmission value in percent of the unexposed sample at 560 nm.

Structure (SMILES) | Solubility 0.1% [1] | Solubility 0.3% [1] | Compatibility 0.1% (number of days over which no efflorescence phenomena are detectable) [2] [days] | Compatibility 0.3% (number of days over which no efflorescence phenomena are detectable) [2] [days] | CO extinction (5.85 μ) ([3]; exposure time 6,000 hours) | Y.F. (yellowing factor) [4] | CO extinction (5.85 μ) ([3]; exposure time 5,000 hours)
O=C1N(Cc2ccccc2)C2(CCCCC2)NC12CCCCC2 [I] |  |  |  |  | 0.010 | 4.5 | 
O=C1N(CCCCN2C(=O)C3(CCCCC3)NC23CCCCC3)C2(CCCCC2)NC12CCCCC2 [VI] |  |  |  |  | 0.010 | 5.5 | 
O=C(CN1C(=O)C2(CCCCC2)NC12CCCCC2)OCC(COC(=O)CN1C(=O)C2(CCCCC2)NC12CCCCC2)(COC(=O)CN1C(=O)C2(CCCCC2)NC12CCCCC2)COC(=O)CN1C(=O)C2(CCCCC2)NC12CCCCC2 [XI] |  |  |  |  |  |  | 0.010

More lines, main results first:

Solubility 0.1% [1] | Solubility 0.3% [1] | Compatibility 0.1% (number of days over which no efflorescence phenomena are detectable) [2] [days] | Compatibility 0.3% (number of days over which no efflorescence phenomena are detectable) [2] [days] | Structure (SMILES) | CO extinction (5.85 μ) ([3]; exposure time 6,000 hours) | Y.F. (yellowing factor) [4] | CO extinction (5.85 μ) ([3]; exposure time 5,000 hours)
dissolv. | dissolv. | 200 | 200 | CCCCCCCCN1C(=O)C2(CCCCC2)NC12CCCCC2 [III] |  |  | 
dissolv. | dissolv. | 200 | 200 | C=CCN1C(=O)C2(CCCCC2)NC12CCCCC2 [II] |  |  | 
dissolv. | dissolv. | 200 | 200 | CCCCCCCCCCCCCCCCCCN1C(=O)C2(CCCCC2)NC12CCCCC2 [IV] |  |  | 
dissolv. | dissolv. | 200 | 200 | CCCCCCCCOC(=O)CN1C(=O)C2(CCCCC2)NC12CCCCC2 [VIII] |  |  | 
